Values joined by “and” are separate entries in the source; they are usually repeats but may differ in a detail not shown here. Equal values may be shown once.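 Tested at 5 concentrations; 48 h exposure; 96-well plates; endpoints linearly interpolated, else capped at highest concentration. Abbreviation: GI50, concentration required for 50% inhibition of growth. TGI marks complete inhibition of growth.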
Key:
Assay in all cases: inhibition of tumour cell growth, NCI panel, 48 h
SNB-19 CNS = test system: SNB-19 CNS
SK-MEL-2 melanoma = test system: SK-MEL-2 melanoma
SNB-78 CNS = test system: SNB-78 CNS
DLD-1 colon = test system: DLD-1 colon
EKVX NSCLC = test system: EKVX NSCLC
SF-268 CNS = test system: SF-268 CNS
DMS 273 small cell lung = test system: DMS 273 small cell lung
A498 renal = test system: A498 renal

| SMILES | TGI (SNB-19 CNS) | TGI (SK-MEL-2 melanoma) | TGI (SNB-78 CNS) [µM] | TGI (DLD-1 colon) [µM] | TGI (EKVX NSCLC) | TGI (SF-268 CNS) | TGI (DMS 273 small cell lung) [µM] | TGI (A498 renal) [µM] | GI50 (SNB-19 CNS) | GI50 (SK-MEL-2 melanoma) | GI50 (EKVX NSCLC) | GI50 (SF-268 CNS) | GI50 (A498 renal) [nM] |
| --- | --- | --- | --- | --- | --- | --- | --- | --- | --- | --- | --- | --- | --- |
| CC1=C(O)C(=O)C2C(=O)C1C(C)C2c1ccc(Cl)cc1 (centres undefined) | > 100 µM | > 100 µM | > 100 | > 100 | > 100 µM | > 100 µM | > 100 | > 100 | – | – | – | – | – |
| COc1c(N2CCN(CN3C(=O)C(=Nc4ccc(S(=O)(=O)Nc5ncccn5)cc4)c4ccccc43)C(C)C2)c(F)cc2c(=O)c(C(=O)O)cn(C3CC3)c12 (centres undefined) | 31.3 µM | > 50 µM | – | – | > 50 µM | > 50 µM | – | 14.2 | 6.51 µM | 20 µM | > 50 µM | 44.1 µM | 833 |
| CCCCN(Cc1ccc(F)cc1)c1ccc(CO)c(Cl)c1 | 27.7 µM | 29.9 µM | – | – | – | 36 µM | – | 0.208 | 14.3 µM | 14.5 µM | – | 19.3 µM | 54.3 |
| CC(=O)O[C@@H]1CC2C(C)(C)CCCC2(C)C2=C1C(=O)C(C(C)C)=CC2=O (some centres undefined) | > 100 µM | 3.53 µM | – | – | 6.88 µM | 38.1 µM | – | 2.35 | 0.87 µM | 0.95 µM | 1.02 µM | 1.39 µM | 1060 |
| Oc1ccc(CCCCCCc2ccc(O)cc2)cc1 | 25.5 µM | 35.5 µM | – | – | 26.7 µM | 17.5 µM | – | 23.5 | 12.6 µM | 16 µM | 10.3 µM | 3.89 µM | 11400 |
| C[C@@H]1COCCN1c1cc(C2(S(C)(=N)=O)CC2)nc(-c2ccnc3[nH]ccc23)n1 (some centres undefined) | 42.2 µM | 18.9 µM | – | – | – | 39.6 µM | – | 1.69 | 3.92 µM | 4.59 µM | – | 6.17 µM | 146 |
| CCCCCCCCCCCC[n+]1ccc(CCCCCCCCC)cc1 | – | – | – | – | – | 2.94 µM | – | 2.37 | – | – | – | 1.38 µM | 1020 |
| CC1OC2CC(=O)OC2C2=C1C(=O)c1c(O)c3c(c(O)c1C2=O)C1CC(O)C3(O)C(C)O1 (centres undefined) | 5.84 µM | 2.26 µM | – | – | 1.8 µM | 1.15 µM | – | 3.42 | 1.94 µM | 0.701 µM | 0.534 µM | 0.303 µM | 1650 |
| CC[C@H](CC#N)OC(=O)N[C@@H](C)c1cccc(NC(=O)Nc2ccc(-c3cnco3)c(OC)c2)c1 | > 100 µM | 34.8 µM | – | – | – | 51.3 µM | – | 20.8 | 0.125 µM | 4.05 µM | – | 0.074 µM | 138 |
| O=C1C(Cl)=C(Nc2cccc(O)c2)C(=O)N1c1cc(Cl)c(Cl)cc1Cl | 45.5 µM | 29.6 µM | – | – | 73.7 µM | 42.5 µM | – | 7.84 | 20.4 µM | 15 µM | 23 µM | 19.5 µM | – |
| COC(=O)CNC(=O)[C@@H](OC)[C@@H]1Cc2cc3cc(OC4CC(OC5CC(O)C(O)C(C)O5)C(O)C(C)O4)c(C)c(O)c3c(O)c2C(=O)[C@H]1OC1CC(OC2CC(OC3CC(C)(O)C(O)C(C)O3)C(O)C(C)O2)C(O)C(C)O1 (some centres undefined) | > 50 µM | 0.712 µM | – | – | > 50 µM | > 50 µM | – | – | 0.154 µM | 0.147 µM | 0.219 µM | 0.196 µM | – |
| CN(C)CCOc1ccc2c(c1)C/C(=C/c1ncc([N+](=O)[O-])n1C)C2=O | 15.3 µM | 3.58 µM | – | – | 18 µM | 9.1 µM | – | 5.54 | – | – | – | – | – |
| NC(C(=O)[O-])C(=O)[O-].NC1CCCCC1N.[Pt+4] | > 100 µM | > 100 µM | – | – | – | 6.71 µM | – | > 100 | 6.54 µM | > 100 µM | – | 0.188 µM | 11600 |
| CC(CNC(Cc1ccccc1)c1ccccc1)NC(Cc1ccccc1)c1ccccc1 (centres undefined) | 13.5 µM | 4.28 µM | – | – | 9.16 µM | 14.3 µM | – | 5.02 | 3.19 µM | 2.18 µM | 2.47 µM | 3.6 µM | 2260 |
| Cc1cc(C(C#N)c2ccc(Cl)cc2)c(Cl)cc1NC(=O)c1cc(I)cc(I)c1O (centres undefined) | 27.1 µM and 27.5 µM | > 100 µM and 40 µM | – | – | 31.1 µM and 33.7 µM | 22.2 µM and 31.3 µM | – | 29.9 | 5.97 µM and 10.4 µM | 7.82 µM and 14.9 µM | 6.71 µM and 13.2 µM | 7.58 µM and 13.8 µM | 11200 |
| CN(C)C(=S)N=Nc1c(O)[nH]c2ccccc12 | 15 µM | 19.8 µM | – | – | 11 µM | 12.6 µM | – | 20.4 | 0.546 µM | 0.8 µM | 0.397 µM | 0.593 µM | 6280 |
| C=C1C(=O)O[C@H]2[C@H]1CC/C(COC(=O)N1CCC[C@H]1C(=O)Nc1ccc(OC)c(C(N)=O)c1O)=C\CC[C@@]1(C)O[C@@H]21 | 23.9 µM | 34.4 µM | – | – | 32.9 µM | 24.7 µM | – | 22.6 | 7.62 µM | 6.58 µM | 4 µM | 5.63 µM | 9170 |
| CC(=O)Nc1ccc2c(c1)oc(=O)c1cc(NC(C)=O)ccc12 | > 100 µM | > 100 µM | – | – | > 100 µM | > 100 µM | – | > 100 | > 100 µM | > 100 µM | > 100 µM | 50.5 µM | > 100000 |
| COc1ccc(O)c(C#N)c1C#N | > 100 µM | > 100 µM | > 100 | – | > 100 µM | > 100 µM | > 100 | > 100 | – | – | – | – | – |
| O=C1/C(=C/c2ccc(O)cc2)COc2ccc(-c3ccccc3)cc21 | 37.3 µM | 39 µM | – | – | 32.1 µM | 22.8 µM | – | 23.8 | 15.7 µM | 16.8 µM | 13.4 µM | 5.49 µM | 11500 |
| c1cnc2[nH]cc(-c3csc(-c4cn(CCCCN5CCOCC5)c5ccccc45)n3)c2c1 | 3.49 µM | 3.87 µM | – | – | 4.74 µM | 3.71 µM | – | – | 1.76 µM | 1.94 µM | 2.07 µM | 1.76 µM | – |
| CC(=O)[O-].CC(=O)[O-].[NH2-].[Pt+2].c1ccc2cnccc2c1 | > 100 µM | > 100 µM | – | – | – | > 100 µM | – | > 100 | > 100 µM | 36 µM | – | 18.8 µM | > 100000 |

From PubChem BioAssay (NCI)
